One block for each compound: values may come before it.
Legend:
[1] = tested on: NCI‐H2122 tumor; experiment: NCI-H2122 subcutaneous transplantation tumor model; assay type: in vivo, BALB/c‐nu mouse; conditions: i.p., q2d
Description: NCI‐H2122 cells in the logarithmic growth phase were collected by mixing serum‐free RMPI‐1640 medium and Matrigel matrix gel, and injected subcutaneously into the right axilla of thymus‐less male BALB/c‐nu nude mice. Tumor volume was calculated according to V = ab^2/2 (where a and b are the long and short diameters of the tumor, respectively), and body weight was recorded every 3 days. When the tumor volume reached 100 mm^3, the mice were randomly divided into six groups (ten mice in each group): Control group (i.p, q2d), SHP099 (20 mg kg^−1, i.p, q2d) group, GDC‐0152 (20 mg kg^−1, i.p, q2d) group, SHP099 (20 mg kg^−1, i.p, q2d) + GDC‐ 0152 (20 mg kg^−1, i.p, q2d) co‐administration group, embelin (20 mg kg^−1, i.p, q2d) medium‐dose group and embelin (30 mg kg^−1, i.p, q2d) high‐dose group. When the tumor volume reached 1000 mm^3, all experimental mice were sacrificed, and tumor tissues and major organs, such as the heart, liver, spleen, lungs, and kidneys, were collected for further study.

[2] = tested on: A549 and NCI‐H2122 cells; experiment: Cell proliferation in monolayer culture (CCK-8); assay type: cell-based, human
Description: (§1) For the adherent cell viability assay, cells in the logarithmic growth phase were seeded in 96-well culture plates at a density of 5×103 well-1 and incubated overnight. Diluted compounds or DMSO were added, or specific treatments were incubated at 37 °C and 5% CO2 for 24 h or 48 h. Cell viability was determined using CCK-8 or CellLightTM Cell Viability Assay Kit, according to the manufacturer's protocol. The luminescence signals of the treated samples were normalized to those of the DMSO group. […]
Figure S7. Targeting SHP2 and XIAP produces a synthetic lethal effect. (A) Effects of NSC-87877 on cell viability of A549 and NCI-H2122 cells after 24 and 48 h were determined using the CCK-8. Bars, ± SEM. The curves were plotted using a variable slope (four-parameter) non-linear fit. (B, E, F, and I) Effects of Na3VO4 (B), birinapant (E), BV-6 (F), and LCL161 (I) on cell viability of human NCI-H2122 cells at 48 h were determined using the CCK-8. *p < 0.05, **p < 0.01 and ***p < 0.001 compared to control group (unpaired two-tailed Student’s t-test).(C, G) Effects of SHP099 (C) and GDC-0152 (G) on cell viability after 24 and 48 h were determined using the CCK-8. Bars, ± SEM. The curves were plotted using a variable slope (four-parameter) non-linear fit.(D, H) Effects of SHP099 (D) and GDC-0152 (H) on cell viability were determined after 48 h using intracellular ATP chemiluminescence. **p < 0.01 and ***p < 0.001 compared to control group (unpaired two-tailed Student’s t-test).(J) Effects of SHP099 and GDC-0152 separately and in combination, and the effect of embelin for 24 h on the cell viability were assessed using intracellular ATP […]
tailed Student’s t-test).(K) Effects of SHP099 and GDC-0152 separately and in combination with […] on the cell viability of human KRAS-WT and -mutant cells were assessed using a colony formation assay. (L, M) A549 and NCI-H2122 cells were instantaneously transfected with siPTPN11 and siXIAP separately and together for 24 h under

[3] = molecular target: T1, SHP2 (Homo sapiens, UniProt Q06124); experiment: Cellular thermal shift assay (CETSA); assay type: binding; conditions: NCI‐H2122 cell lysate
T1 construct: endogenous in cells; host or cells: NCI-H2122
T1 sequence (Q06124 1-593): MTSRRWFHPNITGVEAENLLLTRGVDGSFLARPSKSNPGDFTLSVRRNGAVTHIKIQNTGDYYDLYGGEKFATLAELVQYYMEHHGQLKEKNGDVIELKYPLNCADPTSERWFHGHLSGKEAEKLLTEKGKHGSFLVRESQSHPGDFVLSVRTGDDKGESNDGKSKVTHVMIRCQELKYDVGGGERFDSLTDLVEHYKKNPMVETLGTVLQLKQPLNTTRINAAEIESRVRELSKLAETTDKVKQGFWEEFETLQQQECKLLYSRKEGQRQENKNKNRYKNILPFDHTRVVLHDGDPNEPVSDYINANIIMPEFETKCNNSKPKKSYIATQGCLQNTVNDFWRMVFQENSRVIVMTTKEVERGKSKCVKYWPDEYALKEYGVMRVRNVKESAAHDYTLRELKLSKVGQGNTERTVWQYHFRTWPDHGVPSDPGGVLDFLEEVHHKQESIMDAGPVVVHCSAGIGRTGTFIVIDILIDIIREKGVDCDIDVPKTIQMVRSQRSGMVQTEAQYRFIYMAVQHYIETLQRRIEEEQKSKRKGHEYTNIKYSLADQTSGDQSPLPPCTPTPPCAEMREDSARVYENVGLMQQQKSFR
Description: (§2) NCI‐H2122 cells were harvested and resuspended with pre‐cooled PBS containing 1% cocktail, which was then frozen in liquid nitrogen for 5 min and thawed in a water bath at 37 °C for 5 min for three repetitions. The supernatant was collected via centrifugation at 4 °C (15 000 × g, 20 min), divided into two equal portions; one was added with test drugs or various concentrations of embelin, and the other was added with DMSO as control and subsequently incubated at 25 °C for 30 min. All samples were heated at temperatures ranging from 52–70 °C for 3 min, and subsequently in an ice bath for 3 min and collected by centrifugation at 4 °C (15 000 × g, 20 min), and added with protein sampling buffer at 100 °C for 5 min, followed by analysis of protein stability using western blotting.

[4] = tested on: KRAS‐mutant NSCLC cells in 3D culture; experiment: Cell proliferation in 3D cell culture (ATP chemiluminescence); assay type: cell-based
Description: (§3) supplies are listed in Supplementary Table S5. […]
For the adherent cell viability assay, cells in the logarithmic growth phase were seeded in 96-well culture plates at a density of 5×103 well-1 and incubated overnight. Diluted compounds or DMSO were added, or specific treatments were incubated at 37 °C and 5% CO2 for 24 h or 48 h. Cell viability was determined using CCK-8 or CellLightTM Cell Viability Assay Kit, according to the manufacturer's protocol. The luminescence signals of the treated samples were normalized to those of the DMSO group.
For spherical cell viability assays, cells in the logarithmic growth phase were inoculated ata density of 4×10^3 well-1 into 96-well spherical cell microplates and incubated at 37 °C, 5% CO2 for 24 h or 48 h. Cell viability was measured using the CellTiter-Glo® Luminescent Cell Viability 3D Cell Viability Assay Kit, according to the manufacturer’s protocol. The remaining steps were the same as those described above. […]
Figure S7. Targeting SHP2 and XIAP produces a synthetic lethal effect. (A) Effects of NSC-87877 on cell viability of A549 and NCI-H2122 cells after 24 and 48 h were determined using the CCK-8. Bars, ± SEM. […]
tailed Student’s t-test).(K) Effects of SHP099 and GDC-0152 separately and in combination with […] on the cell viability of human KRAS-WT and -mutant cells were assessed using a colony formation assay. […]

[5] = tested on: NCI-H2122, A549, and NCI-H1944 cells; experiment: Cell senescence β-galactosidase staining; assay type: cell-based, human; conditions: NCI‐H2122 cells; candidate drugs 10 μM
Description: Cell senescence β-galactosidase staining
NCI-H2122, A549, and NCI-H1944 cells in the logarithmic growth phase were seeded into 48-well plates and cultured overnight. The supernatant was aspirated and fresh serum-free (0%), low-serum (3%), or regular serum (10%) medium with different drugs was added for 48 h. When the supernatant was discarded, β-galactosidase staining fixation fluid were added for 15 min and β-galactosidase staining solution were imported overnight at 37 ℃.
Finally, the staining results were recorded using an inverted microscope.

[6] = molecular target: T2, XIAP (Homo sapiens, UniProt P98170); experiment: Cellular thermal shift assay (CETSA); assay type: binding; conditions: 56 and 62 ℃
T2 construct: endogenous in cells; host or cells: NCI-H2122
Description: as §2

[7] = tested on: A549 cells; experiment: Cell viability assay (CCK-8); assay type: cell-based; conditions: Homo sapiens; A549, KRAS G12S, 24 h; read-out: IC50 at 24 h
Description: as §3
(§4) KRAS-mutant and wild-type cells are listed in Supplementary Table S7.
as §1

[8] = tested on: NCI-H1975 cells; experiment: Cell viability assay (CCK-8); assay type: cell-based; conditions: Homo sapiens, NCI-H1975, 24 h, NCI-H1975, RAS-wild type, EGFR L858R/T790M
Description: as §3, §4, §1

T2 sequence (P98170 whole entry): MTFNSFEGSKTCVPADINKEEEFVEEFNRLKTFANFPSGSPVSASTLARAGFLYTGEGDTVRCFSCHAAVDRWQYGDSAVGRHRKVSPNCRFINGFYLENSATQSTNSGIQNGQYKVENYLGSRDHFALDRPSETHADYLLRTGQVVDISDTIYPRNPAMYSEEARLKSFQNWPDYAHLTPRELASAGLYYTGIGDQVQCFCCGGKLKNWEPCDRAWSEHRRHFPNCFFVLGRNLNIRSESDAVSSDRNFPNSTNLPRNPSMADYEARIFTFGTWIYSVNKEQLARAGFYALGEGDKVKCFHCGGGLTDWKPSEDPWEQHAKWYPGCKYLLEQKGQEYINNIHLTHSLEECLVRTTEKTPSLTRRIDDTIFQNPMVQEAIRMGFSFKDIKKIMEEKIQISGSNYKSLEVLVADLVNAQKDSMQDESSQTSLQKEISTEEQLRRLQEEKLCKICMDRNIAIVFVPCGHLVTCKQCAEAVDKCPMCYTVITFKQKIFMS

effect on weights of hearts, livers, lungs, and kidneys and structure of hearts and kidneys [1]: no significant effect | effect on SHP2 protein stability (CETSA) [3]: did not affect SHP2 protein stability
Compound: CN[C@@H](C)C(=O)N[C@H](C(=O)N1CCC[C@H]1C(=O)Nc1snnc1-c1ccccc1)C1CCCCC1 [GDC‐0152]
effect on body weight of the mice [1]: little or no effect on the body weight | effect on cell proliferation in monolayer cell culture mode [2]: almost no effect | effect on cell proliferation in 3D cell culture [4]: partially inhibited cell proliferation | induction of cell senescence [5]: induced cellular senescence

Compound: O=S(=O)(O)c1ccc2cc(N=Nc3cc(S(=O)(=O)O)c4cccnc4c3O)ccc2c1 [NSC‐87877]
effect on cell proliferation in monolayer cell culture mode [2]: almost no effect | effect on XIAP protein stability (CETSA) [6]: did not affect XIAP protein stability

Compound: [Na+].[Na+].[Na+].[O]=[V]([O-])([O-])[O-] [Na3VO4]
effect on cell proliferation in monolayer cell culture mode [2]: almost no effect | effect on XIAP protein stability (CETSA) [6]: did not affect XIAP protein stability

IC50 [7]: > 100 µM | IC50 [8]: > 100 µM
Compound: C#Cc1cccc(Nc2ncnc3cc(OCCOC)c(OCCOC)cc23)c1 [erlotinib]
